Experimental data as given in patent US20030226169A1, “DNA sequences encoding antifungal proteins” (priority 1995, published 2003).
Residues, ends and D or L forms follow the SMILES beside them.

How the values were obtained:
[1] = test system: F culmorum; test: Antifungal activity of combinations of Rs-AFP and 15-mer peptides; type: cell-based, Fusarium culmorum; conditions: 100 x MIC of Rs-AFP2 / MIC of Rs-AFP2/peptide combination; 15-mer peptide added at 20 μg/ml; SMF medium; BSA-coated plates; Rs-AFP2 alone = 100
Procedure: The 15-mer peptides were tested for their ability to affect the antifungal activity of the Rs-AFP2 protein (SEQ ID NO: 35). Each peptide was added at a subinhibitory concentration (20 μg/ml ) to a twofold dilution series of Rs-AFP2 (SEQ ID NO: 35) ranging from 20 μg/ml down to 0.15 μg/ml. In the control series only water was added.
The target fungus was F culmorum and the growth medium was SMF. In order to exclude the effect of differential binding of the peptides to the microplate wells, the plates were coated with bovine serum albumin. […] The relative specific activity is defined as one hundred times the MIC of Rs-AFP2 divided by the MIC of the Rs-AFP2/peptide combination. Data are based on duplicate tests.

[2] = test system: Fusarium culmorum (IMI 180420); test: Antifungal growth inhibition microplate assay (photospectrometry); type: cell-based; conditions: ½ PDB
How it was run: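 Spores (2×10^4/ml) in half-strength potato dextrose broth exposed to test solution, incubated in the dark at room temperature for about 72 h (96 h for V. dahliae). Growth by OD595 minus 30-min reading; IC50 is 50% and MIC 100% growth inhibition.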

[3] = test system: Ascophyta pisi (MUCL 30164); type: cell-based; conditions: Table 6: Rs-AFP1-based 9-mer split peptides, ½ PDB
Procedure: The following fungal strains were used: Alternaria brassicicola (MUCL 20297), Ascophyta pisi (MUCL 30164), Botrytis cinerea (MUCL 30158), Fusarium culmorum (IMI 180420) and Verticillium dahliae (MUCL 19210).
Fungi were grown on six cereal agar plates at room temperature and under white fluorescent light except for F culmorum and V dahliae which were grown in the dark. The duration of the spore harvest varied between 10 and 25 days depending on the strain. Spores were collected as follows. Five to ten ml of sterile milli-Q water was poured into each dish and the surface of the agar was rubbed with a sterile spatula to obtain a suspension containing mycelium and spores. This suspension was filtered through a sterile glasswool-plugged funnel and the filtrate containing the spores was collected in a sterile polypropylene centrifuge tube. The A brassicicola spores were suspended in sterile 0.1 Tween 20 (Merk, 822184) due to their hydrophobic nature. The spore suspensions were then washed twice by centrifugation at 2,400×g for 15 minutes and resuspended in a small volume of steril milli-Q water. The spore density was determined in a counting chamber and then adjusted to 4×10^7 spores per ml. Aliquots of the spore suspension were transferred to sterile microtubes and an equal volume of sterile 50% glycerol (Merck, 4091) was added to each tube so that a final spore suspension of 2×10^7 spores per ml in 25% glycerol was obtained. After careful mixing of the stock, the spore suspension was transferred in 100 μl aliquots to sterile microtubes and stored at −80° C.
Antifungal activity was measured by photospectrometry as described by Broekaert et al, (1990, FEMS Microbiol Lett, 69:55-60). Tests were performed by adding 20 μl of test solution and 80 μl of a fungal spore suspension (2×10^4 spores/ml) per well in a sterile flat-bottom 96-well microtiterplate. The spore suspension was prepared by diluting the stock spore suspension ([…] in 25% glycerol) 1:1000 in half-strength potato dextrose broth. A positive growth control consisting of eight wells containing 20 μl of sterile milli-Q water and 80 μl of the fungal spore suspension was included in each test. The microtiterplates were incubated (with the lid on) in an aerated place at room temperature and under conditions of darkness for all test organisms.
After 30 minutes of incubation (when the spores are settled on the well bottom) the optical density was measured in a microplate reader (Bio Rad 3550-UV) at 595 nm. Incubation of the microtiterplates continued until the optical density of the control microculture was between 0.250 and 0.500, which took approximately 72 hours (96 hours for V dahliae). Percentage of growth inhibition (% GI) was estimated as 100 times the ratio of the corrected absorbance of the control microculture minus the corrected absorbance of the test microculture over the corrected absorbance of the control microculture at 595 nm. The corrected absorbance values equal the absorbance at 595 nm of the culture measured after 72 or 96 hours minus the absorbance at 595 nm measured after 30 minutes.
% GI=[(Acontrol−Atest/Acontrol]×100
where Acontrol=(A72/96h−A30min)control
The IC50 value is defined as the concentration that gives a 50% growth inhibition after 72 or 96 hours of incubation. The minimum inhibitory concentration (MIC) corresponds to the minimum concentration that gives 100% growth inhibition after 72 or 96 hours incubation.

Row | Compound | Relative Specific Antifungal Activity [1] | other results
1 | CC(=O)N[C@@H](CCC(N)=O)C(=O)N[C@@H](CCCCN)C(=O)N[C@@H](CC(C)C)C(=O)N[C@@H](CS)C(=O)N[C@@H](CCC(N)=O)C(=O)N[C@@H](CCCNC(=N)N)C(=O)N1CCC[C@H]1C(=O)N[C@@H](CO)C(=O)NCC(=O)N[C@H](C(=O)N[C@@H](Cc1c[nH]c2ccccc12)C(=O)N[C@@H](CO)C(=O)NCC(=O)N[C@H](C(=O)N[C@@H](CS)C(N)=O)C(C)C)[C@@H](C)O [Peptide 1 (Rs-AFP2 15-mer)] (Ac-QKLCQRPSGTWSGVC-NH2; N-terminus and C-terminus assumed) | 310 | –
2 | CC(=O)NCC(=O)N[C@H](C(=O)N[C@@H](Cc1c[nH]c2ccccc12)C(=O)N[C@@H](CO)C(=O)NCC(=O)N[C@H](C(=O)N[C@@H](CS)C(=O)NCC(=O)N[C@@H](CC(N)=O)C(=O)N[C@@H](CC(N)=O)C(=O)N[C@@H](CC(N)=O)C(=O)N[C@@H](C)C(=O)N[C@@H](CS)C(=O)N[C@@H](CCCCN)C(=O)N[C@@H](CC(N)=O)C(N)=O)C(C)C)[C@@H](C)O [Peptide 3 (Rs-AFP2 15-mer)] (Ac-GTWSGVCGNNNACKN-NH2; N-terminus and C-terminus assumed) | 180 | –
3 | CC[C@H](C)[C@H](NC(=O)[C@H](CS)NC(=O)[C@H](CCC(N)=O)NC(=O)[C@H](CC(N)=O)NC(=O)[C@H](CCCCN)NC(=O)[C@H](CS)NC(=O)[C@H](C)NC(=O)[C@H](CC(N)=O)NC(=O)[C@H](CC(N)=O)NC(=O)[C@H](CC(N)=O)NC(=O)CNC(=O)[C@H](CS)NC(=O)[C@@H](NC(=O)CNC(C)=O)C(C)C)C(=O)N[C@@H](CCCNC(=N)N)C(N)=O [Peptide 4 (Rs-AFP2 15-mer)] (Ac-GVCGNNNACKNQCIR-NH2; N-terminus and C-terminus assumed) | 180 | –
4 | CC[C@H](C)[C@H](NC(=O)[C@H](CS)NC(=O)[C@H](CCC(N)=O)NC(=O)[C@H](CC(N)=O)NC(=O)[C@H](CCCCN)NC(=O)[C@H](CS)NC(=O)[C@H](C)NC(=O)[C@H](CC(N)=O)NC(=O)[C@H](CC(N)=O)NC(=O)[C@H](CC(N)=O)NC(C)=O)C(=O)N[C@@H](CCCNC(=N)N)C(=O)N[C@@H](CC(C)C)C(=O)N[C@@H](CCC(=O)O)C(=O)N[C@@H](CCCCN)C(=O)N[C@@H](C)C(N)=O [Peptide 5 (Rs-AFP2 15-mer)] (Ac-NNNACKNQCIRLEKA-NH2; N-terminus and C-terminus assumed) | 180 | –
5 | CC[C@H](C)[C@H](NC(=O)[C@H](CS)NC(=O)[C@H](CCCCN)NC(=O)[C@H](Cc1c[nH]cn1)NC(=O)[C@H](C)NC(=O)[C@@H]1CCCN1C(=O)[C@H](Cc1ccccc1)NC(=O)[C@@H](NC(=O)[C@H](Cc1ccc(O)cc1)NC(=O)[C@H](CC(N)=O)NC(C)=O)C(C)C)C(=O)N[C@@H](CS)C(=O)N[C@@H](Cc1ccc(O)cc1)C(=O)N[C@@H](Cc1ccccc1)C(=O)N1CCC[C@H]1C(=O)N[C@@H](CS)C(N)=O [Peptide 10 (Rs-AFP2 15-mer)] (Ac-NYVFPAHKCICYFPC-NH2; N-terminus and C-terminus assumed) | 250 | –
6 | Ac-QRPSGTWSGVCGNNN-NH2 (N-terminus and C-terminus assumed) [Peptide 2 (Rs-AFP2 15-mer)] | 120 | –
7 | Ac-RHGSCNYVF-NH2 [compound 78] | – | IC50 ([2]; Table 3 / FIG. 6: Rs-AFP2-based 9-mer split peptides, the source numbers peptides by N-terminal amino acid): 284 µg/mL; MIC ([2]; Table 3: Rs-AFP2-based 9-mer split peptides, duplicate): 400 µg/mL; F CULMORUM IC ([2]; Table 6 / FIG. 8: Rs-AFP1-based 9-mer split peptides, the source numbers peptides by N-terminal amino acid): 69 µg/mL; F CULMORUM MIC ([2]; Table 6: Rs-AFP1-based 9-mer split peptides): 100 µg/mL; A PISI MIC [3]: 100 µg/mL; A PISI IC ([3]; the source numbers peptides by N-terminal amino acid): 70 µg/mL
